The results in this text go back to patent US11319316B2, “Compounds that induce degradation of anti-apoptotic Bcl-2 family proteins and the uses thereof” (BioVentures, LLC, priority 2016, dated 2022).

Holding throughout (assay type): cell-based
In one assay the test system is NCI-H146 cancer cells. Description: Cancer cell viability by MTS, 72 h, NCI-H146. The settings on record: Homo sapiens. As to the method:
(§1) RS4; 11 and NCI-H146 cancer cells were incubated with vehicle or increasing concentrations of compounds of Formula (I) and Formula (II). At 72 hours post-treatment cell viability was measured by MTS and EC50 was calculated as a percentage of control cells treated with vehicle. Table 1 depicts the EC50 values of compounds of Formula (I) and Formula (II) against RS4; 11 and NCI-H146.

For assay [1], the system named is IR-induced senescent WI38 cells (IR-SC). Briefly: Viability of IR-induced senescent WI38 cells (IR-SC), 72 h, PI staining and flow cytometry. The note with it: for EC50: IR-induced senescent WI38 cells, 72 hours, viable (PI-) cells as percentage of vehicle control; for Ratio NSC/SC: ratio of WI38 EC50 in NSC to EC50 in IR-SC. The procedure: (§2) Normal WI38 (NSC) and IR-induced senescent WI38 cells (IR-SC) were incubated with vehicle or increasing concentrations of compounds of Formula (I) or Formula (II) for 72 hours. The cells were digested with 0.25% trypsin and 1 mM EDTA, and harvested in PBS containing 2% FBS. After incubation with propidium iodide (PI, 100 ng/ml) in PBS at room temperature for 1 minute, cells were centrifuged at 1,200 rpm for 6 minutes to remove PI and then resuspended in PBS containing 2% FBS for analysis using a flow cytometer. Viable cells (PI-cells) were analyzed by flow cytometry at a constant flow rate to count the number of cells and calculated as a percentage of control cells treated with vehicle. Table 1 depicts the EC50 values of the compounds of Formula (I) and compounds of Formula (II) against normal WI38 and IR-induced senescent WI38.

In the next assay the test system is Normal WI38 (NSC). Description: Viability of normal WI38 cells (NSC), 72 h, PI staining and flow cytometry. The procedure: as §2
A general note: In flow cytometry, cells or beads pass a laser one at a time.

Assay [2] has as its target T1, Bcl-xL (Homo sapiens, UniProt Q07817).
T1 construct: endogenous in cells; host or cells: WI38 cells (normal NC-WI38 and ionizing-radiation-induced senescent IR-SC WI38)
Briefly: Protein degradation assay (Western blot) in IR-SC WI38 cells. The note with it: for Bcl-xL depletion in IR-SC WI38 cells: 1 μM (FIG. 4A). As to the method:
IR-SC WI38 cells were incubated with vehicle or increasing concentrations of XZ-14439 for 18 hours at increasing […] (FIG. 3A) and at a fixed concentration of XZ-14439 for increasing times (FIG. […]). The cells were digested with 0.25% trypsin and 1 mM EDTA, and harvested in RIPA lysis buffer with 1% Phosphatase Inhibitor Cocktail 3 and 1% Protease Inhibitor Cocktail. An equal amount of protein (15-30 μg/lane) from each cell extract was resolved on a 12% SDS-PAGE gel. Proteins were blotted onto a NOVEX PVDF membrane by electrophoresis. The membranes were blocked with TBS-T blocking buffer (5% nonfat milk in 25 mM Tris-HCL, pH 7.4; 3 mM KCl; […] NaCl; and 0.05% Tween) and probed with primary antibodies (at a predetermined optimal concentration) overnight at 4° C. or for 1 hour at room temperature. After extensive washing with TBS-T, the membranes were incubated with an appropriate peroxidase-conjugated secondary antibody for 1 hour at room temperature. After three washes with TBS-T, the proteins of interest were detected with ECL Western Blotting Detection Reagents and recorded with autoradiography (Pierce Biotech, Rockford, Ill., USA). The primary antibody Bcl-x (#2762), Bcl-2 antibody (#2872S) and β-actin (13E5, #4970) were purchased from Cell Signaling.
(§3) IR-SC WI38 (FIG. 4A) and RS4; 11 (FIG. 4B) cells were incubated with vehicle or increasing concentrations of compounds of Formula (I) or Formula (II) for 6 or 16 hours, at 1 μM (FIG. 4A) and 100 nm (FIG. 4B), respectively. The cells were harvested in RIPA lysis buffer with 1% Phosphatase Inhibitor Cocktail 3 and 1% Protease Inhibitor Cocktail. An equal amount of protein (15-30 μg/lane) from each cell extract was resolved on a 12% SDS-PAGE gel. Proteins were blotted onto a NOVEX PVDF membrane by electrophoresis. The membranes were blocked with TBS-T blocking buffer (5% nonfat milk in 25 mM Tris-HCL, pH 7.4; 3 mM KCl; 140 mM NaCl; and 0.05% Tween) and probed with primary antibodies (at a predetermined optimal concentration) overnight at 4° C. or for 1 hour at room temperature. After extensive washing with TBS-T, the membranes were incubated with an appropriate peroxidase-conjugated secondary antibody (Jackson ImmunoResearch Europe, Suffolk, UK) for 1 hour at room temperature. After three washes with TBS-T, the proteins of interest were detected with ECL Western Blotting Detection Reagents and recorded with autoradiography. The primary antibody Bcl-xl (#2762), Bcl-2 antibody (#2872S), Bcl-w (#2724S), Mcl-1 (#5453s) and β-actin (13E5, #4970) were purchased from Cell Signaling.

Another assay has as its system RS4; 11 cancer cells. Description: Cancer cell viability by MTS, 72 h, RS4;11. The settings on record: RS4;11 cells. The procedure: as §1
In assay [3] the target is T1, Bcl-xL. Description: Protein degradation assay (Western blot) in RS4;11 cells. More on the design: dose or concentration left out as unconfirmed. As to the method:
as §3, with “IR-SC WI38 (FIG. 4A) and RS4; 11 (FIG. 4B) cells were incubated with vehicle or increasing concentrations of compounds of Formula (I) or Formula (II) for 6 or 16 hours, at 1 μM (FIG. 4A) and 100 nm (FIG. 4B), respectively.” left out

Where [4] appears, read: Homo sapiens, WI-38, viable (PI-) cells as percentage of vehicle control.

SMILES strings stand for the structures.

The EC50 is the concentration at which the effect is half-maximal.

T1 sequence (Q07817 whole entry): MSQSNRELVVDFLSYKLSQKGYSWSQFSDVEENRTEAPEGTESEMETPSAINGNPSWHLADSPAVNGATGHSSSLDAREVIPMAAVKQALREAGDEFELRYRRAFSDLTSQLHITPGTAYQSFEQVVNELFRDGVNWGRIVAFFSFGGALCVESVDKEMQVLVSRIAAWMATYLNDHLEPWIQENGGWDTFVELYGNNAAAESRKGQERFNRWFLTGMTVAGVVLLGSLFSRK

As to `CC1(C)CCC(c2ccc(Cl)cc2)=C(CN2CCN(c3ccc(C(=O)NS(=O)(=O)c4ccc(N[C@H](CCN5CCN(C(=O)CCCn6cc(COCCOCCOCCNc7cccc8c7C(=O)N(C7CCC(=O)NC7=O)C8=O)nn6)CC5)CSc5ccccc5)c(S(=O)(=O)C(F)(F)F)c4)cc3)CC2)C1` (stereo partly drawn) [XZ-14439, 4-(4-((4′-chloro-4,4-dimethyl-3,4,5,6-tetrahydro-[1,1′-biphenyl]-2-yl)methyl)piperazin-1-yl)-N-((4-(((2R)-4-(4-(4-(4-((2-(2-(2-((2-(2,6-dioxopiperidin-1,3-yl)-1,3-dioxoisoindolin-4-yl)amino)ethoxy)ethoxy)ethoxy)methyl)-1H-1,2,3-triazol-1-yl)butanoyl)piperazin-1-yl)-1-(phenylthio)butan-2-yl)amino)-3-((trifluoromethyl)sulfonyl)phenyl)sulfonyl)benzamide], the EC50 in the assay with NCI-H146 cancer cells was 69.5 nM; in assay [1] (Homo sapiens, WI-38), 870 nM; in the assay on Normal WI38 (NSC) (setting [4]) it was more than 20000 nM; in the assay with RS4; 11 cancer cells (Homo sapiens) it was 84.4 nM. The “Ratio NSC/SC” value in assay [1] is reported as more than 20.88. Moreover, on Bcl-xL [2] (increasing concentrations for 18 hours (FIG. 3A), fixed concentration for increasing times (FIG. 3B)), the “Bcl-xL depletion in IR-SC WI38 cells, dose and time dependence” value is “depletes Bcl-xL in IR-SC WI38 cells in both a dose dependent (FIG. 3A) and time dependent (FIG. 3B) manner”.

In the case of `Cc1ncsc1-c1ccc(CNC(=O)[C@@H]2C[C@@H](O)CN2C(=O)[C@@H](NC(=O)CCC(=O)NCCOCCOCCNC(=O)N2CCC(CNc3ccc(S(=O)(=O)NC(=O)c4ccc(N5CCN(CC6=C(c7ccc(Cl)cc7)CC(C)(C)CC6)CC5)cc4Oc4cnc5[nH]ccc5c4)cc3[N+](=O)[O-])CC2)C(C)(C)C)cc1` [XZ-14528, N1-(2-(2-(2-(4-(((4-N-(2-((1H-pyrrolo[2,3-b]pyridin-5-yl)oxy)-4-(4-((4′-chloro-5,5-dimethyl-3,4,5,6-tetrahydro-(1,1′-biphenyl-2-yl)methyl)piperazin-1-yl)benzoyl)sulfamoyl)-2-nitrophenyl)amino)methyl)piperidine-1-carboxamido)ethoxy)ethoxy)ethyl)-N4-((S)-1-((2S,4R)-4-hydroxy-2-((4-(4-methylthiazol-5-yl)benzyl)carbamoyl)pyrrolidin-1-yl)-3,3-dimethyl-1-oxobutan-2-yl)succinamide], the EC50 with NCI-H146 cancer cells is more than 2000 nM; in assay [1] (Homo sapiens, WI-38), more than 10000 nM; with Normal WI38 (NSC) (setting [4]) it was more than 10000 nM; with RS4; 11 cancer cells (Homo sapiens) it was 397 nM.

For the compound `Cc1ncsc1-c1ccc(CNC(=O)[C@@H]2C[C@@H](O)CN2C(=O)[C@@H](NC(=O)CCC(=O)NCCOCCOCCNC(=O)N2CCN(CC[C@H](CSc3ccccc3)Nc3ccc(S(=O)(=O)NC(=O)c4ccc(N5CCN(CC6=C(c7ccc(Cl)cc7)CCC(C)(C)C6)CC5)cc4)cc3S(=O)(=O)C(F)(F)F)CC2)C(C)(C)C)cc1` [XZ-14529], the EC50 is more than 2000 nM in the assay with NCI-H146 cancer cells; more than 10000 nM in assay [1] (Homo sapiens, WI-38); more than 10000 nM with Normal WI38 (NSC) (setting [4]); 823 nM in the assay on RS4; 11 cancer cells (Homo sapiens).

In the case of `CC1(C)CCC(c2ccc(Cl)cc2)=C(CN2CCN(c3ccc(C(=O)NS(=O)(=O)c4ccc(N[C@H](CCN5CCN(C(=O)COCCOCCOCCOCCNc6cccc7c6C(=O)N(C6CCC(=O)NC6=O)C7=O)CC5)CSc5ccccc5)c(S(=O)(=O)C(F)(F)F)c4)cc3)CC2)C1` (stereo partly shown) [XZ-14540], the EC50 with NCI-H146 cancer cells was 76.2 nM; in assay [1] (Homo sapiens, WI-38) it was 1130 nM; in the assay with Normal WI38 (NSC) (setting [4]) it was more than 10000 nM; in the assay with RS4; 11 cancer cells (Homo sapiens), 82.4 nM. For the same compound, the “Ratio NSC/SC” value in assay [1] worked out at 8.86.

Consider `CC1(C)CCC(c2ccc(Cl)cc2)=C(CN2CCN(c3ccc(C(=O)NS(=O)(=O)c4ccc(N[C@H](CCN5CCN(CCOCCOCCNc6cccc7c6C(=O)N(C6CCC(=O)NC6=O)C7=O)CC5)CSc5ccccc5)c(S(=O)(=O)C(F)(F)F)c4)cc3)CC2)C1` (stereo partly drawn) [XZ-15405, 4-(4-((4′-chloro-4,4-dimethyl-3,4,5,6-tetrahydro-[1,1′-biphenyl]-2-yl)methyl)piperazin-1-yl)-N-((4-(((2R)-4-(4-(2-(2-(2-((2-(2,6-dioxopiperidin-3-yl)-1,3-dioxoisoindolin-4-yl)amino)ethoxy)ethoxy)ethyl)piperazin-1-yl)-1-(phenylthio)butan-2-yl)amino)-3-((trifluoromethyl)sulfonyl)phenyl)sulfonyl)benzamide], for which the EC50 in assay [1] (Homo sapiens, WI-38) was 152 nM; in the assay on Normal WI38 (NSC) (setting [4]) it was more than 10000 nM; with RS4; 11 cancer cells (Homo sapiens), 24.8 nM. Also, in assay [1], the “Ratio NSC/SC” value was more than 65.97. Besides, the “Bcl-xL depletion in RS4; 11 cells” value at Bcl-xL [3] was “deplete Bcl-xL”. Also, the “Bcl-xL depletion in IR-SC WI38 cells” value at Bcl-xL [2] is “deplete Bcl-xL”.

As for `CC1(C)CCC(c2ccc(Cl)cc2)=C(CN2CCN(c3ccc(C(=O)NS(=O)(=O)c4ccc(N[C@H](CCN5CCN(CCOCCOCCOCCNc6cccc7c6C(=O)N(C6CCC(=O)NC6=O)C7=O)CC5)CSc5ccccc5)c(S(=O)(=O)C(F)(F)F)c4)cc3)CC2)C1` (stereo partly drawn) [XZ-15418, 4-(4-((4′-chloro-4,4-dimethyl-3,4,5,6-tetrahydro-[1,1′-biphenyl]-2-yl)methy)piperazin-1-yl)-N-((4-(((2R)-4-(4-(2-(2-(2-(2-((2-(2,6-dioxopiperidin-3-yl)-1,3-dioxoisoindolin-4-yl)amino)ethoxy)ethoxy)ethoxy)ethyl)piperazin-1-yl)-1-(phenylthio)butan-2-yl)amino)-3-((trifluoromethyl)sulfonyl)phenyl)sulfonyl)benzamide], the values for the EC50 (in assay [1]; in the assay with Normal WI38 (NSC) (viable (PI-) cells as percentage of vehicle control); in the assay with RS4; 11 cancer cells) were 172 nM, more than 10000 nM and 12.3 nM, respectively. The “Ratio NSC/SC” value in assay [1] is on record as more than 58.06. Besides, the “Bcl-xL depletion in RS4; 11 cells” value on Bcl-xL [3] was “deplete Bcl-xL”. Further, the “Bcl-xL depletion in IR-SC WI38 cells” value at Bcl-xL [2] is on record as “deplete Bcl-xL”.

For `CC1(C)CCC(c2ccc(Cl)cc2)=C(CN2CCN(c3ccc(C(=O)NS(=O)(=O)c4ccc(N[C@H](CCN5CCN(C(=O)Cn6cc(COCCOCCNc7cccc8c7C(=O)N(C7CCC(=O)NC7=O)C8=O)nn6)CC5)CSc5ccccc5)c(S(=O)(=O)C(F)(F)F)c4)cc3)CC2)C1` (stereo partly shown) [XZ-15421], the EC50 in assay [1] (Homo sapiens, WI-38) is less than 156 nM; with Normal WI38 (NSC) (setting [4]), more than 10000 nM; in the assay on RS4; 11 cancer cells (Homo sapiens), 72.9 nM. Moreover, the “Ratio NSC/SC” value in assay [1] is on record as more than 64.02. The “Bcl-xL depletion in RS4; 11 cells” value at Bcl-xL [3] is on record as “deplete Bcl-xL”. In addition, the “Bcl-xL depletion in IR-SC WI38 cells” value on Bcl-xL [2] was “deplete Bcl-xL”.
